Data: patent US20250082764A1, “DRUG FOR TREATING TRIPLE NEGATIVE BREAST CANCER” (HINOVA PHARMACEUTICALS INC., priority 2022, published 2025)

Tests used:
Type in all cases: cell-based
MDA-MB-453 cells [1] = assay: Inhibition of proliferation of MDA-MB-453 cells by single agents (CCK-8 or CTG); settings: co-incubation for 7-10 days; for inhibitory effect on the proliferation of MDA-MB-453 cells (in words): single agent
Description: Triple negative breast cancer MDA-MB-453 cells in logarithmic growth stage were inoculated into a 96-well plate at a concentration of 4×10^3 cells/well, and then incubated in an incubator at 37° C., 5% CO2, and saturated humidity for 24 h or 48 h. To the negative control well, was added RPMI 1640 cell medium containing 10% fetal bovine serum in the same volume as the drug. After cultured for 24 h or 48 h, to the 96-well plate, were added AR PROTACs compounds 162, 177, 230, 259, 279, 281, 282, 325, 357, 400, ARV-110, ARV-766 and AR inhibitor HC-1119, respectively. The concentrations of compounds 177, 230, 259, 279, 281, 282, 325, 357, 400, ARV-110, and ARV-766 are 0 μM, 0.002 μM, 0.005 μM, 0.014 μM, 0.041 μM, 0.123 μM, 0.370 μM, 1.111μM, 3.333 μM or 10 μM; while the concentrations of HC-1119 are 0 μM, 1.23 μM, 3.70 μM, 11.11 μM, 33.33 μM or 100 μM.
(§1) After addition of the drugs and co-incubation for 7-10 days, 10 μL of CCK-8 was added to each well, and then the plate was further cultured for 2 h. The absorbance value (OD) of each well was measured using a microplate reader at a wavelength of 450 nm. The survival rate was calculated using Prism software, the relative survival rate=(OD value of drug well/OD value of control well)×100%. Alternatively, 100 μL of medium was removed from each well, and then 50 μL of CTG was added. The plate was shaken in the dark for 2 min, allowed to stand for 10 min, and then measured using a microplate reader in Luminescence mode. Prism software was used to calculate the survival rate, the relative survival rate=(the RLU value of drug well/the RLU value of control well)×100%.

MDA-MB-453 cells [2] = assay: Proliferation of MDA-MB-453 cells, AR PROTAC in combination with PI3K inhibitor Alpelisib (Combination Index); settings: molar ratio of compound to Alpelisib 1:27-9:1; 7 days; synergistic when CI<1
Description: (§2) Triple negative breast cancer MDA-MB-453 cells in logarithmic growth stage were inoculated into a 96-well plate at a concentration of 4×10^3 cells/well, and then incubated in an incubator at 37° C., 5% CO2, and saturated humidity for 24 h. To the negative control wells, were added RPMI 1640 cell culture medium containing 10% fetal bovine serum in the same volume as the drug. After cultured for 24 h, to the 96-well plate, were sequentially added AR PROTACs compounds 279, 281, 282, ARV-110, ARV-766 and PI3K inhibitor Alpelisib, respectively.
as §1, with “7” for “7-10”

MDA-MB-453 cells [3] = assay: Proliferation of MDA-MB-453 cells, AR PROTAC in combination with PI3K inhibitor Duvelisib (Combination Index); settings: molar ratio of compound to Duvelisib 1:30-1:1.111; 7-10 days; synergistic when CI<1
Description: as §2, with “ARV-110” for “ARV-110, ARV-766”, “Duvelisib,” for “Alpelisib,”
as §1, with “adding” for “addition of”, “co-incubating” for “co-incubation”

MDA-MB-453 cells [4] = assay: Proliferation of MDA-MB-453 cells, AR PROTAC in combination with PI3K inhibitor Idelalisib (Combination Index); settings: molar ratio of compound to Idelalisib 1:270-1:3.333; 7-10 days; synergistic when CI<1
Description: as §2, with “Idelalisib,” for “Alpelisib,”
as §1, with “adding” for “addition of”, “co-incubating” for “co-incubation”

MDA-MB-453 cells [5] = assay: Proliferation of MDA-MB-453 cells, AR PROTAC in combination with chemotherapeutic drug Paclitaxel (Combination Index); settings: molar ratio of compound to Paclitaxel 20:1-5000:1; 7 days; synergistic when CI<1
Description: as §2, with “ARV-110” for “ARV-110, ARV-766”, “chemotherapeutic drug Paclitaxel,” for “PI3K inhibitor Alpelisib,”
as §1, with “adding” for “addition of”, “co-incubating” for “co-incubation”, “7” for “7-10”

Compound | inhibitory effect on the proliferation of MDA-MB-453 cells (in words) (MDA-MB-453 cells [1]) | effect of drug combination with Alpelisib on inhibiting the proliferation of MDA-MB-453 cells (MDA-MB-453 cells [2]) | effect of drug combination with Duvelisib on inhibiting the proliferation of MDA-MB-453 cells (MDA-MB-453 cells [3]) | effect of drug combination with Idelalisib on inhibiting the proliferation of MDA-MB-453 cells (MDA-MB-453 cells [4]) | effect of drug combination with Paclitaxel on inhibiting the proliferation of MDA-MB-453 cells (MDA-MB-453 cells [5]) | IC50 (MDA-MB-453 cells [1]; Homo sapiens, MDA-MB-453, CCK-8 or CTG readout, read-out: IC50 values against MDA-MB-453 cells) [nM]
N#Cc1ccc(O[C@H]2CC[C@H](NC(=O)c3ccc(N4CCC(CN5CCN(c6cc7c(cc6F)C(=O)N(C6CCC(=O)NC6=O)C7=O)CC5)CC4)nn3)CC2)cc1Cl (stereo partly shown) [ARV-110, reference compound] | inhibit the proliferation of MDA-MB-453 cells to varying degrees | synergistic effect | synergistic effect | synergistic effect | synergistic effect | 
COc1cc(O[C@H]2C(C)(C)[C@H](NC(=O)c3ccc(N4CCC(CN5CCN(c6ccc(C(=O)N[C@H]7CCC(=O)NC7=O)c(F)c6)CC5)CC4)cc3)C2(C)C)ccc1C#N [ARV-766, reference compound] | inhibit the proliferation of MDA-MB-453 cells to varying degrees | synergistic effect |  | synergistic effect |  | 
N#Cc1ccc(O[C@H]2CC[C@H](NC(=O)c3cnc(N4C[C@@H]5[C@@H](CN6CCN(c7ccc8c(c7)C(=O)N(C7CCC(=O)NC7=O)C8=O)CC6)[C@@H]5C4)cn3)CC2)cc1Cl (stereo partly shown) [Compound 177] | inhibit the proliferation of MDA-MB-453 cells to varying degrees |  |  |  |  | 
N#Cc1ccc(O[C@H]2CC[C@H](NC(=O)c3ccc(N4CCC(CN5CCC6(CC5)CN(c5ccc7c(c5)C(=O)N(C5CCC(=O)NC5=O)C7=O)C6)CC4)nn3)CC2)cc1Cl (stereo partly shown) [Compound 230] | inhibit the proliferation of MDA-MB-453 cells to varying degrees |  |  |  |  | 
N#Cc1ccc(O[C@H]2CC[C@H](NC(=O)c3ccc(N4CC5CN(CC6CCN(c7cc8c(cc7F)C(=O)N(C7CCC(=O)NC7=O)C8=O)CC6)CC5C4)nn3)CC2)cc1Cl (stereo partly shown) [Compound 259] | inhibit the proliferation of MDA-MB-453 cells to varying degrees |  |  |  |  | 
N#Cc1ccc(O[C@H]2CC[C@H](NC(=O)c3cnc(N4CCC(CN5CCC6(CC5)CN(c5ccc7c(c5)C(=O)N(C5CCC(=O)NC5=O)C7=O)C6)CC4)nn3)CC2)cc1Cl (stereo partly shown) [Compound 279] | inhibit the proliferation of MDA-MB-453 cells to varying degrees | synergistic effect | synergistic effect | synergistic effect | synergistic effect | 
N#Cc1ccc(O[C@H]2CC[C@H](NC(=O)c3ccc(N4CCC(N5CCC6(CC5)CN(c5ccc7c(c5)C(=O)N(C5CCC(=O)NC5=O)C7=O)C6)CC4)nn3)CC2)cc1Cl (stereo partly shown) [Compound 281] | inhibit the proliferation of MDA-MB-453 cells to varying degrees | synergistic effect | synergistic effect | synergistic effect | synergistic effect | 
N#Cc1ccc(O[C@H]2CC[C@H](NC(=O)c3ccc(N4CC5(CCN(CC6CCN(c7ccc8c(c7)C(=O)N(C7CCC(=O)NC7=O)C8=O)CC6)CC5)C4)nn3)CC2)cc1Cl (stereo partly shown) [Compound 282] | inhibit the proliferation of MDA-MB-453 cells to varying degrees | synergistic effect | synergistic effect | synergistic effect | synergistic effect | 
CC1(C)[C@H](Oc2ccc(C#N)c(Cl)c2)C(C)(C)[C@H]1N1Cc2nc(C#C[C@H]3CC[C@H](N4CCN(c5ccc6c(c5)C(=O)N(C5CCC(=O)NC5=O)C6=O)CC4)CC3)ccc2C1=O (stereo partly shown) [Compound 325] | inhibit the proliferation of MDA-MB-453 cells to varying degrees |  |  |  |  | 
CC1(C)[C@H](Oc2ccc(C#N)c(Cl)c2)C(C)(C)[C@H]1N1Cc2nc(C#C[C@H]3C[C@H](N4CCN(c5cc6c(cc5F)C(=O)N(C5CCC(=O)NC5=O)C6=O)CC4)C3)ccc2C1=O (stereo partly shown) [Compound 357] | inhibit the proliferation of MDA-MB-453 cells to varying degrees |  |  |  |  | ≤ 2000
COc1cc(O[C@H]2C(C)(C)[C@H](N3Cc4nc(C#C[C@H]5CC[C@H](N6CCN(c7ccc8c(c7)C(=O)N(C7CCC(=O)NC7=O)C8=O)CC6)CC5)ccc4C3=O)C2(C)C)ccc1C#N (stereo partly shown) [Compound 400] | inhibit the proliferation of MDA-MB-453 cells to varying degrees |  |  |  |  | 
[2H]C([2H])([2H])NC(=O)c1ccc(N2C(=S)N(c3ccc(C#N)c(C(F)(F)F)c3)C(=O)C2(C)C)cc1F [HC-1119, reference compound] | weak inhibitory effect |  |  |  |  | 
